Source: patent US20220280490A1, “TREATMENT OF FRAGILE X SYNDROME” (HEALX LTD, priority 2019, published 2022)

How the values were obtained:
Assay type in all cases: in vivo, mouse
Details in all cases: 12 mg/kg ibudilast, compared with WT vehicle
Fmr1 KO2 mice [1] = assay: Open field (hyperactivity)
Description: (§1) Fmr1 knockout 2 (Fmr1 K02) mice were generated by deletion of the promoter and first exon of Fmr1. The Fmr1 KO2 it is both, protein and mRNA null. In this study we used Fmr1 KO2 and wild-type (WT) littermates generated on a C57BL/6J background and repeatedly backcrossed onto a C57BL/6J background for more than eight generations.
(§2) There were four treatment groups per compound in the study with 10 male mice used per treatment group (all at 8 weeks of age): Group 1: wild-type littermate mice treated with vehicle (WT-Veh), Group 2: Fmr1 KO2 mice treated with vehicle (KO-Veh), Group 3: Fmr1 KO2 mice treated with 12 mg/kg ibudilast (KO-ibudilast).
For experiments, all mice were tested once in the same apparatus. Prior to testing, mice were placed in the apparatus for some minutes before the experiment. […] We assessed weight loss, fur loss, walking, eyes open, eye discharges and general behavior.
The open-field apparatus was used to test hyperactivity. […] The number of squares entered by the whole body (locomotor activity) was counted. The movement of the mouse around the field was recorded with a video tracking device for 3 min (version NT4.0, Viewpoint).
(§3) Data were analyzed by one-way ANOVA with a Dunnett's multiple comparison post hoc test in which WT Vehicle group was used as reference and compared with all the other groups

Fmr1 KO2 mice [2] = assay: Nesting
Description: as §1, §2
(§4) For experiments, all mice were tested once in the same apparatus. Prior to testing, mice were placed in the apparatus for some minutes before the experiment. The apparatus was cleaned with moist and dry tissues before testing each mouse. […] We assessed weight loss, fur loss, walking, eyes open, eye discharges and general behavior.
The test was performed in individual cages. […] Mice were placed individually into the nesting cages 1 hr. before the dark phase, and the results were assessed the next morning. Nest building was scored on a 5 point scale. […]
as §3

Fmr1 KO2 mice [3] = assay: Contextual fear conditioning
Description: as §1, §2
For experiments, all mice were tested once in the same apparatus. Prior to testing, mice were placed in the apparatus for some minutes before the experiment. The apparatus was cleaned with moist and dry tissues before testing each mouse. The aim was to create a low but constant background mouse odor for all experimental subjects. Testers were blind to the genotype and treatment during all testing and data analysis. We assessed weight loss, fur loss, walking, eyes open, eye discharges and general behavior. […]
as §3

Fmr1 KO2 mice [4] = assay: Three-chambered sociability task (social interaction)
Description: as §1, §2, §4
In the three-chambered sociability task, a subject mouse was evaluated for its exploration of a novel social stimulus (novel mouse). […] The time spent exploring the novel mice was scored as exploration ratio.
as §3

CC(C)C(=O)c1c(C(C)C)nn2ccccc12 [ibudilast, 2-methyl-1-(2-propan-2-ylpyrazolo[1,5-a]pyridin-3-yl)propan-1-one]
fully rescued: open field (hyperactivity, locomotor activity) (Fmr1 KO2 mice [1]) | nesting (nest building score) (Fmr1 KO2 mice [2]) | fear conditioning (freezing response) (Fmr1 KO2 mice [3]) | sociability (exploration ratio) (Fmr1 KO2 mice [4])
